According to patent publication US20230123334A1, “AMINO LIPID COMPOUND, PREPARATION METHOD THEREFOR, AND APPLICATION THEREOF” (SHENZHEN SHENXIN BIOTECHNOLOGY CO., LTD., priority 2020, published 2023):

Tested on: HEK293 cells
Experiment: Preliminary screening as DNA vectors, GFP transfection of HEK293 cells
Type: cell-based
Settings: amino lipid/DOPE liposome with 75 ng plasmid DNA (psin-EGFP-IRES-Puro); number of GFP-expressing cells divided by total nuclei (Hoechst)
Outline: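 HEK293 cells in DMEM/10% FBS transfected with 75 ng EGFP plasmid per well complexed with amino lipid/DOPE liposomes in pH 5.6 sodium acetate. Hoechst nuclear stain added 20-24 h post-transfection, then cells cultured another 20-24 h. Confocal imaging gives GFP-positive cells as % of total nuclei.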

Row | SMILES | Absolute DNA transfection efficiency in HEK293 cells
1 | CCCCCCCCCCCCCCCCCCNc1nc(NCCCN2CCN(C)CC2)nc(SCCCCCCCCCCC)n1 [S11N18 D9] | 9.3%
2 | CCCCCCCCCCCCCCCCCCNc1nc(NCC2CCN(C)CC2)nc(SCCCCCCCCCCC)n1 [S11N18 D10] | 5.7%
3 | CCCCCCCCCCCCN(CCCCCCCCCCCC)c1nc(NCCN(C)C)nc(SCCCCCCCCCCC)n1 [S11^2N12 D1] | 0.0%
4 | CCCCCCCCCCCCN(CCCCCCCCCCCC)c1nc(NCCN2CCOCC2)nc(SCCCCCCCCCCC)n1 [S11^2N12 D2] | 0.0%
5 | CCCCCCCCCCCCN(CCCCCCCCCCCC)c1nc(NCCN2CCCC2)nc(SCCCCCCCCCCC)n1 [S11^2N12 D3] | 0.0%
6 | CCCCCCCCCCCCN(CCCCCCCCCCCC)c1nc(NCCN2CCCCC2)nc(SCCCCCCCCCCC)n1 [S11^2N12 D4] | 0.0%
7 | CCCCCCCCCCCCN(CCCCCCCCCCCC)c1nc(NCCN2CCN(C)CC2)nc(SCCCCCCCCCCC)n1 [S11^2N12 D5] | 0.1%
8 | CCCCCCCCCCCCN(CCCCCCCCCCCC)c1nc(NCCCN(C)C)nc(SCCCCCCCCCCC)n1 [S11^2N12 D6] | 0.3%
9 | CCCCCCCCCCCCN(CCCCCCCCCCCC)c1nc(NCCN(CC)CC)nc(SCCCCCCCCCCC)n1 [S11^2N12 D7] | 0.1%
10 | CCCCCCCCCCCCN(CCCCCCCCCCCC)c1nc(NCCCN2CCOCC2)nc(SCCCCCCCCCCC)n1 [S11^2N12 D8] | 0.0%
11 | CCCCCCCCCCCCN(CCCCCCCCCCCC)c1nc(NCCCN2CCN(C)CC2)nc(SCCCCCCCCCCC)n1 [S11^2N12 D9] | 0.0%
12 | CCCCCCCCCCCCN(CCCCCCCCCCCC)c1nc(NCC2CCN(C)CC2)nc(SCCCCCCCCCCC)n1 [S11^2N12 D10] | 0.0%
13 | CCCCCCCCCCCCSc1nc(NCCCCCC)nc(NCCN(C)C)n1 [S12N6 D1] | 0.3%
14 | CCCCCCCCCCCCSc1nc(NCCCCCC)nc(NCCN2CCOCC2)n1 [S12N6 D2] | 0.1%
15 | CCCCCCCCCCCCSc1nc(NCCCCCC)nc(NCCN2CCCC2)n1 [S12N6 D3] | 0.0%
16 | CCCCCCCCCCCCSc1nc(NCCCCCC)nc(NCCN2CCCCC2)n1 [S12N6 D4] | 0.0%
17 | CCCCCCCCCCCCSc1nc(NCCCCCC)nc(NCCN2CCN(C)CC2)n1 [S12N6 D5] | 0.2%
18 | CCCCCCCCCCCCSc1nc(NCCCCCC)nc(NCCCN(C)C)n1 [S12N6 D6] | 1.1%
19 | CCCCCCCCCCCCSc1nc(NCCCCCC)nc(NCCN(CC)CC)n1 [S12N6 D7] | 6.5%
20 | CCCCCCCCCCCCSc1nc(NCCCCCC)nc(NCCCN2CCOCC2)n1 [S12N6 D8] | 0.1%
21 | CCCCCCCCCCCCSc1nc(NCCCCCC)nc(NCCCN2CCN(C)CC2)n1 [S12N6 D9] | 0.3%
22 | CCCCCCCCCCCCSc1nc(NCCCCCC)nc(NCC2CCN(C)CC2)n1 [S12N6 D10] | 0.1%

Row | SMILES | Absolute DNA transfection efficiency in HEK293 cells
23 | CCCCCCCCCCCCSc1nc(NCCCCCCC)nc(NCCN(C)C)n1 [S12N7 D1] | 6.9%
24 | CCCCCCCCCCCCSc1nc(NCCCCCCC)nc(NCCN2CCOCC2)n1 [S12N7 D2] | 0.1%
25 | CCCCCCCCCCCCSc1nc(NCCCCCCC)nc(NCCN2CCCC2)n1 [S12N7 D3] | 3.2%
26 | CCCCCCCCCCCCSc1nc(NCCCCCCC)nc(NCCN2CCCCC2)n1 [S12N7 D4] | 0.2%
27 | CCCCCCCCCCCCSc1nc(NCCCCCCC)nc(NCCN2CCN(C)CC2)n1 [S12N7 D5] | 3.6%
28 | CCCCCCCCCCCCSc1nc(NCCCCCCC)nc(NCCCN(C)C)n1 [S12N7 D6] | 11.2%
29 | CCCCCCCCCCCCSc1nc(NCCCCCCC)nc(NCCN(CC)CC)n1 [S12N7 D7] | 3.4%
30 | CCCCCCCCCCCCSc1nc(NCCCCCCC)nc(NCCCN2CCOCC2)n1 [S12N7 D8] | 0.3%
31 | CCCCCCCCCCCCSc1nc(NCCCCCCC)nc(NCCCN2CCN(C)CC2)n1 [S12N7 D9] | 0.3%
32 | CCCCCCCCCCCCSc1nc(NCCCCCCC)nc(NCC2CCN(C)CC2)n1 [S12N7 D10] | 5.8%
33 | CCCCCCCCCCCCSc1nc(NCCCCCCCC)nc(NCCN(C)C)n1 [S12N8 D1] | 6.0%
34 | CCCCCCCCCCCCSc1nc(NCCCCCCCC)nc(NCCN2CCOCC2)n1 [S12N8 D2] | 0.1%
35 | CCCCCCCCCCCCSc1nc(NCCCCCCCC)nc(NCCN2CCCC2)n1 [S12N8 D3] | 1.5%
36 | CCCCCCCCCCCCSc1nc(NCCCCCCCC)nc(NCCN2CCCCC2)n1 [S12N8 D4] | 0.0%
37 | CCCCCCCCCCCCSc1nc(NCCCCCCCC)nc(NCCN2CCN(C)CC2)n1 [S12N8 D5] | 13.8%
38 | CCCCCCCCCCCCSc1nc(NCCCCCCCC)nc(NCCCN(C)C)n1 [S12N8 D6] | 43.1%
39 | CCCCCCCCCCCCSc1nc(NCCCCCCCC)nc(NCCN(CC)CC)n1 [S12N8 D7] | 0.1%
40 | CCCCCCCCCCCCSc1nc(NCCCCCCCC)nc(NCCCN2CCOCC2)n1 [S12N8 D8] | 0.0%
41 | CCCCCCCCCCCCSc1nc(NCCCCCCCC)nc(NCCCN2CCN(C)CC2)n1 [S12N8 D9] | 8.9%
42 | CCCCCCCCCCCCSc1nc(NCCCCCCCC)nc(NCC2CCN(C)CC2)n1 [S12N8 D10] | 16.3%
43 | CCCCCCCCCCCCSc1nc(NCCCCCCCCC)nc(NCCN(C)C)n1 [S12N9 D1] | 4.5%
44 | CCCCCCCCCCCCSc1nc(NCCCCCCCCC)nc(NCCN2CCOCC2)n1 [S12N9 D2] | 0.0%

Row | SMILES | Absolute DNA transfection efficiency in HEK293 cells
45 | CCCCCCCCCCCCSc1nc(NCCCCCCCCC)nc(NCCN2CCCC2)n1 [S12N9 D3] | 7.0%
46 | CCCCCCCCCCCCSc1nc(NCCCCCCCCC)nc(NCCN2CCCCC2)n1 [S12N9 D4] | 0.1%
47 | CCCCCCCCCCCCSc1nc(NCCCCCCCCC)nc(NCCN2CCN(C)CC2)n1 [S12N9 D5] | 20.2%
48 | CCCCCCCCCCCCSc1nc(NCCCCCCCCC)nc(NCCCN(C)C)n1 [S12N9 D6] | 37.0%
49 | CCCCCCCCCCCCSc1nc(NCCCCCCCCC)nc(NCCN(CC)CC)n1 [S12N9 D7] | 0.8%
50 | CCCCCCCCCCCCSc1nc(NCCCCCCCCC)nc(NCCCN2CCOCC2)n1 [S12N9 D8] | 0.0%
51 | CCCCCCCCCCCCSc1nc(NCCCCCCCCC)nc(NCCCN2CCN(C)CC2)n1 [S12N9 D9] | 10.9%
52 | CCCCCCCCCCCCSc1nc(NCCCCCCCCC)nc(NCC2CCN(C)CC2)n1 [S12N9 D10] | 11.3%
53 | CCCCCCCCCCCCSc1nc(NCCCCCCCCCCC)nc(NCCN(C)C)n1 [S12N11 D1] | 3.2%
54 | CCCCCCCCCCCCSc1nc(NCCCCCCCCCCC)nc(NCCN2CCOCC2)n1 [S12N11 D2] | 0.3%
55 | CCCCCCCCCCCCSc1nc(NCCCCCCCCCCC)nc(NCCN2CCCC2)n1 [S12N11 D3] | 30.3%
56 | CCCCCCCCCCCCSc1nc(NCCCCCCCCCCC)nc(NCCN2CCCCC2)n1 [S12N11 D4] | 1.0%
57 | CCCCCCCCCCCCSc1nc(NCCCCCCCCCCC)nc(NCCN2CCN(C)CC2)n1 [S12N11 D5] | 8.0%
58 | CCCCCCCCCCCCSc1nc(NCCCCCCCCCCC)nc(NCCCN(C)C)n1 [S12N11 D6] | 14.9%
59 | CCCCCCCCCCCCSc1nc(NCCCCCCCCCCC)nc(NCCN(CC)CC)n1 [S12N11 D7] | 5.8%
60 | CCCCCCCCCCCCSc1nc(NCCCCCCCCCCC)nc(NCCCN2CCOCC2)n1 [S12N11 D8] | 0.0%
61 | CCCCCCCCCCCCSc1nc(NCCCCCCCCCCC)nc(NCCCN2CCN(C)CC2)n1 [S12N11 D9] | 3.9%
62 | CCCCCCCCCCCCSc1nc(NCCCCCCCCCCC)nc(NCC2CCN(C)CC2)n1 [S12N11 D10] | 19.6%
63 | CCCCCCCCCCCCNc1nc(NCCN(C)C)nc(SCCCCCCCCCCCC)n1 [S12N12 D1] | 7.9%
64 | CCCCCCCCCCCCNc1nc(NCCN2CCOCC2)nc(SCCCCCCCCCCCC)n1 [S12N12 D2] | 0.0%
65 | CCCCCCCCCCCCNc1nc(NCCN2CCCC2)nc(SCCCCCCCCCCCC)n1 [S12N12 D3] | 31.4%
66 | CCCCCCCCCCCCNc1nc(NCCN2CCCCC2)nc(SCCCCCCCCCCCC)n1 [S12N12 D4] | 0.1%
